Measurements from US20240109942A1, “CHOLECYSTOKININ (CCK) SECRETION-PROMOTING PEPTIDE TARGETING CALCIUM-SENSING RECEPTOR, AND PREPARATION METHOD AND USE THEREOF” (University of Shanghai for Science and Technology, priority 2022, published 2024).
Where no end group is shown, it is not given here.

System: STC-1 cell
Test: MTT cell proliferation and cytotoxicity assay on STC-1 cell
Assay type: cell-based
Settings: absorbance 570 nm, peptide 0, 1, 2, 4 mmol/L, FIG. 2
Method: An STC-1 cell was cultured in a dulbecco's modified eagle medium (DMEM) containing 10% fetal bovine serum (FBS), 1% non-essential amino acids (NEAA), 100 U/mL penicillin and 0.1 mg/mL streptomycin. The cell was incubated in a cell incubator containing 5% CO2 at 37° C. and was subcultured by means of trypsin digestion when reaching 80%-90% density.
The effect of the active peptide of QGDVVALPA on the viability of the STC-1 cell was tested and evaluated by means of 3-(4,5-dimethylthiazol-2-yl)-2,5-diphenyltetrazolium bromide [3-(4,5-di methyl-2-thiazolyl)-2,5-di phenyl]-2H-tetrazolium bromide, methyl thiazolyl tetrazolium (MTT)) cell proliferation and cytotoxicity. MTT was added into the STC-1 cell treated in a 96-well plate, and a metabolically active cell cleaved yellow tetrazolium salt MTT into a purple formazan crystal. Formazan formed was dissolved, absorbance was measured with a microplate reader at a measurement wavelength of 570 nm, and results were expressed as a percentage of a control group.

## QGDVVALPA [QGDVVALPA, Gln-Gly-Asp-Val-Val-Ala-Leu-Pro-Ala]
  viability of the STC-1 cell compared with the control group: not changed
